The target of one assay is T1, EP4 receptors (Homo sapiens, UniProt P35408).
T1 construct: expressed in transfected cells; host or cells: HEK-293
The assay can be described thus: Radioligand binding ([3H]PGE2), EP4. The essentials:
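Membranes from HEK-293 cells stably expressing the human receptor, resuspended at 1 mg/ml protein in TME buffer pH 7.4. Competition against 5 nM [3H]PGE2 for 60 min at 25 °C, ended by filtration on GF/B filters; non-specific binding defined with 10^−5 M unlabeled PGE2.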

The target of another assay is T2, hEP4/Gqs5 (Homo sapiens, UniProt P35408).
T2 construct: expressed in transfected cells; host or cells: HEK-293(EBNA)
T2 sequence (P35408 whole entry): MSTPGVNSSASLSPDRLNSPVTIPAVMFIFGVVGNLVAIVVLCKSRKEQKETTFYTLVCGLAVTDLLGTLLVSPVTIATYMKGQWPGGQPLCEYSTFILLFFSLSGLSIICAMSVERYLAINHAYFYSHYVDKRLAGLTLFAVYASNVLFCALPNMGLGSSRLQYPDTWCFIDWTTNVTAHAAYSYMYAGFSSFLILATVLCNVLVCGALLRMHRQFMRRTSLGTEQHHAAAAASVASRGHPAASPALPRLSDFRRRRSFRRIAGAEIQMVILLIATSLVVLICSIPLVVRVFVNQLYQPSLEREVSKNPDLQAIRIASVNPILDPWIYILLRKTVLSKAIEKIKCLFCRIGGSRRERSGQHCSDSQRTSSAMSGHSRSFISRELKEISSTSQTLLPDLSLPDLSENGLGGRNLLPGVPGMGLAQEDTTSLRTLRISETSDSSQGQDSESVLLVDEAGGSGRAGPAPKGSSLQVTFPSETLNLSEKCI
The assay can be described thus: FLIPR calcium signal, hEP4. Particulars: for EC50: unit inferred, read-out: EP4 data flipr EC50. The assay is classed as cell-based. Summed up:
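HEK-293(EBNA) cells stably expressing each human prostanoid receptor (EP2 and EP3A coupled via Gqs5/Gqi5 chimeras) were loaded with Fluo-4 AM, and peak calcium fluorescence was measured on FLIPR at 37° C. Compounds were tested at 10^−5 M or from 10^−11 to 10^−5 M in duplicate, n≥3, with response expressed relative to buffer and standard agonist controls.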

The next assay addresses T3, human EP2 receptors (Homo sapiens, UniProt P43116).
T3 construct: expressed in transfected cells; host or cells: HEK 293
The assay can be described thus: Competition radioligand binding ([3H]PGE2), EP2.

The target of the next assay is T4, hEP1 (Homo sapiens, UniProt P34995).
T4 construct: expressed in transfected cells; host or cells: HEK-293(EBNA)
T4 sequence (P34995 1-402): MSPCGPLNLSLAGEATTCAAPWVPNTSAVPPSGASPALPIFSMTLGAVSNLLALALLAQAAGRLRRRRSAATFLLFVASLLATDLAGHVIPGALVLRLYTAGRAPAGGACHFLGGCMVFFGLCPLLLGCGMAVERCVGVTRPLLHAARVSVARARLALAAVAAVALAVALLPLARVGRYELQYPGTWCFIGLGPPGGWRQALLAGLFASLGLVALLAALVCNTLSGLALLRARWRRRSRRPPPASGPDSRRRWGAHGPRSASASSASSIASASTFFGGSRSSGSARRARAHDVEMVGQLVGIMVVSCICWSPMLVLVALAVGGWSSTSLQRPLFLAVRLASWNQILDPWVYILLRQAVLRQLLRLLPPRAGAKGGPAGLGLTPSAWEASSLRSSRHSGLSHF
Put plainly: FLIPR calcium signal, hEP1. It counts as cell-based. As to conditions: for EC50: read-out: Other Receptors EC50 hEP1. How it is done: (§1) HEK-293(EBNA) cells, stably expressing one type or subtype of recombinant human prostaglandin receptors (prostaglandin receptors expressed: hDP/Gqs5; hEP1; hEP2/Gqs5; hEP3A/Gqi5; hEP4/Gqs5; hFP; hIP; hTP), were cultured in 100 mm culture dishes in high-glucose DMEM medium containing 10% fetal bovine serum, 2 mM 1-glutamine, 250 μg/ml geneticin (G418) and 200 μg/ml hygromycin B as selection markers, and 100 units/ml penicillin G, 100 μg/ml streptomycin and 0.25 μg/ml amphotericin B. • (b) Calcium Signal Studies on the FLIPR™
(§2) Cells were seeded at a density of 5×10^4 cells per well in Biocoat® Poly-D-lysine-coated black-wall, clear-bottom 96-well plates (Becton-Dickinson) and allowed to attach overnight in an incubator at 37° C. Cells were then washed two times with HBSS-HEPES buffer (Hanks Balanced Salt Solution without bicarbonate and phenol red, 20 mM HEPES, pH 7.4) using a Denley Cellwash plate washer (Labsystems). After 45 minutes of dye-loading in the dark, using the calcium-sensitive dye Fluo-4 AM at a final concentration of 2 μM, plates were washed four times with HBSS-HEPES buffer to remove excess dye leaving 100 μl in each well. Plates were re-equilibrated to 37° C. for a few minutes.
(§3) Cells were excited with an Argon laser at 488 nm, and emission was measured through a 510-570 nm bandwidth emission filter (FLIPR™, Molecular Devices, Sunnyvale, Calif.). Drug solution was added in a 50 μl volume to each well to give the desired final concentration. The peak increase in fluorescence intensity was recorded for each well. On each plate, four wells each served as negative (HBSS-HEPES buffer) and positive controls (standard agonists: BW245C (hDP); PGE2 (hEP1; hEP2/Gqs5; hEP3A/Gqi5; hEP4/Gqs5); PGF2α (hFP); carbacyclin (hIP); U-46619 (hTP), depending on receptor). The peak fluorescence change in each drug-containing well was then expressed relative to the controls.
(§4) Compounds were tested in a high-throughput (HTS) or concentration-response (CoRe) format. In the HTS format, forty-four compounds per plate were examined in duplicates at a concentration of 10^−5 M. To generate concentration-response curves, four compounds per plate were tested in duplicates in a concentration range between 10^−5 and 10^−11 M. The duplicate values were averaged. In either, HTS or CoRe format each compound was tested on at least 3 separate plates using cells from different passages to give an n≧3.

Another assay has as its target T5, hIP (Homo sapiens, UniProt P43119).
T5 construct: expressed in transfected cells; host or cells: HEK-293(EBNA)
Put plainly: FLIPR calcium signal, hIP. It counts as cell-based. Particulars: for EC50: read-out: Other Receptors EC50 hIP. How it is done:
as §1, §2, §3, §4

Setting [1] is: unit inferred, read-out: EP4 data KI.
Setting [2] is: unit inferred, read-out: EP2 data Ki.
The mark [3] stands for this setting: pH 6.0, unit inferred, read-out: EP2 data Ki pH 6.0.

Where two headings read alike, the source gives them in different places.

T1 sequence (P35408 whole entry): as the sequence (P35408 whole entry) above
T5 sequence (P43119 whole entry): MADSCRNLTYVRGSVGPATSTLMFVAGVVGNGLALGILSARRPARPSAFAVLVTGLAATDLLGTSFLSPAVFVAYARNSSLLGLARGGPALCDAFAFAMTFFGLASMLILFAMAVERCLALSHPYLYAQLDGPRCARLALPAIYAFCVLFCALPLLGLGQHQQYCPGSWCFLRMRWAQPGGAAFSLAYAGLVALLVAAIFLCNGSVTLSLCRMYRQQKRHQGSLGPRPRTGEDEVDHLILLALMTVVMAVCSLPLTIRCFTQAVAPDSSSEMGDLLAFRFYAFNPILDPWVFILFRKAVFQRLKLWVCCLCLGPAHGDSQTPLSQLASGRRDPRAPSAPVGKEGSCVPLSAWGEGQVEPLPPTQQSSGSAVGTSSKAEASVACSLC
T3 sequence (P43116 whole entry): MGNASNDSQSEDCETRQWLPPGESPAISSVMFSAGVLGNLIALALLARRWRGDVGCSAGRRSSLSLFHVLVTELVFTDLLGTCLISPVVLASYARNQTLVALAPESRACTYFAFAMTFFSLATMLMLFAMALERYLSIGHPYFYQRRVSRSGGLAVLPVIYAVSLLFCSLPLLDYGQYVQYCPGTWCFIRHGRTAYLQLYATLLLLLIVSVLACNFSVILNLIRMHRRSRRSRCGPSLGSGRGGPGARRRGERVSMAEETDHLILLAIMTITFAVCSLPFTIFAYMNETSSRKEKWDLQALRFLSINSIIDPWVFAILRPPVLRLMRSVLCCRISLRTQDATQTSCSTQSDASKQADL

The Ki is a measure of affinity in units of concentration, obtained from inhibition or displacement. Turning to `CCCCCC(C)c1ccc([C@@H]2[C@@H](C/C=C\CCCC(=O)O)[C@H](C#N)C[C@H]2C)cc1` (some centres unmarked), the inhibitory constant (Ki) at EP4 receptors (Table 3, third part, read-out: BINDING-Ki (nM) EP4) was above 10000 nM; at human EP2 receptors (Table 3, third part, read-out: BINDING-Ki (nM) EP2), 1250 nM. The “Ca2+ Signal-EC50 (nM) EP4” value at hEP4/Gqs5 (Table 3, third part) is listed as “not active”. In addition, the “Ca2+ Signal-EC50 (nM) EP1” value on hEP1 (Table 3, third part) is “not active”. On hIP (Table 3, third part), the “Ca2+ Signal-EC50 (nM) IP” value was “not active”.
One may read the EC50 as the concentration at which the effect is half-maximal. For `CCCCCC(=O)c1ccc(N2C(=O)CC[C@@H]2CCCc2ccc(C(=O)O)s2)cc1`, the inhibition constant Ki was above 10000 nM at EP4 receptors (setting [1]) and 31 nM at human EP2 receptors (setting [2]). Also, the EC50 at hEP4/Gqs5 was above 10000 nM.
In the case of `CC(C)(C)c1ccc(N2C(=O)CC[C@@H]2COCc2ccc(C(=O)O)o2)cc1`, the Ki at EP4 receptors (setting [1]) is above 10000 nM; on human EP2 receptors (setting [3]), 189 nM; on human EP2 receptors (setting [2]), 4000 nM. Further, the EC50 at hEP4/Gqs5 was above 10000 nM.
Take `CC(C)(C)c1ccc(N2C(=O)CC[C@@H]2COCc2ccc(C(=O)O)s2)cc1`: the inhibitory constant (Ki) on EP4 receptors (setting [1]) is above 10000 nM; on human EP2 receptors (setting [3]), 27 nM; on human EP2 receptors (setting [2]), 501 nM. In addition, the EC50 on hEP4/Gqs5 and on hEP1 was above 10000 nM in each case.
With `CC(C)(C)c1ccc(N2C(=O)CC[C@@H]2CCCCCCC(=O)O)cc1`, the inhibitory constant (Ki) at EP4 receptors (setting [1]) and at human EP2 receptors (setting [2]) was above 10000 nM throughout. In addition, the EC50 on hEP4/Gqs5 and at hEP1 was above 10000 nM throughout.
Turning to `CCCCCC(O)c1ccc(N2C(=O)CC[C@@H]2COCc2ccc(C(=O)O)s2)cc1` (single isomer, unassigned) [drawing 148], the Ki is above 10000 nM at EP4 receptors (setting [1]) and 345 nM at human EP2 receptors (setting [2]). For the same compound, on hEP4/Gqs5, the EC50 was above 10000 nM.
Turning to `CCCCCC(O)c1ccc(N2C(=O)CC[C@@H]2CCCc2ccc(C(=O)O)s2)cc1` (single isomer, unassigned) [drawing 151], on hEP4/Gqs5, the EC50 was above 10000 nM. At human EP2 receptors (setting [2]), the Ki was determined as 15 nM.
For `CCCCCCC(O)c1ccc(N2C(=O)CC[C@@H]2COCc2ccc(C(=O)O)s2)cc1` (single isomer, unassigned) [drawing 152], the inhibition constant (Ki) on human EP2 receptors (setting [2]) turned out to be 229 nM.
Turning to `CCCCCCC(O)c1ccc(N2C(=O)CC[C@@H]2CCCc2ccc(C(=O)O)s2)cc1` (single isomer, unassigned) [drawing 155], the Ki on human EP2 receptors (setting [2]) came out at 12 nM. Also, the EC50 on hEP1 is 6950 nM.
Turning to `CCCCCCC(O)c1ccc(N2C(=O)CC[C@@H]2CCCc2ccc(C(=O)O)s2)cc1` (single isomer, unassigned) [drawing 156], the Ki on human EP2 receptors (setting [2]) was 8 nM. Also, the EC50 on hIP is above 10000 nM.
As to `CCCCCC(O)c1ccc(N2C(=O)CC[C@@H]2COCc2ccc(C(=O)O)s2)cc1` (single isomer, unassigned) [drawing 176], the Ki on EP4 receptors (setting [1]) is above 10000 nM; at human EP2 receptors (setting [2]), 345 nM. Further, the EC50 at hEP4/Gqs5 was above 10000 nM.
`CCCCCC(O)c1ccc(N2C(=O)CC[C@@H]2COCc2ccc(C(=O)O)s2)cc1` (single isomer, unassigned) [drawing 177]: the Ki at EP4 receptors (setting [1]) came out at 6030 nM; at human EP2 receptors (setting [2]), 116 nM. The 50% effective concentration (EC50) on hEP4/Gqs5 was above 10000 nM.
In the same order, the values of `CCCCCC(O)c1ccc(N2C(=O)CC[C@@H]2CCCc2ccc(C(=O)O)s2)cc1` (single isomer, unassigned) [drawing 178] are above 10000 nM, 21 nM and above 10000 nM.
In the same order, the values of `CCCCCC(O)c1ccc(N2C(=O)CC[C@@H]2CCCc2ccc(C(=O)O)s2)cc1` (single isomer, unassigned) [drawing 179] are 4850 nM, 15 nM and above 10000 nM.
As for `CCCCCC(O)c1ccc(N2C(=O)CC[C@@H]2CCCc2ccc(C(=O)O)s2)cc1` (single isomer, unassigned) [drawing 180], the inhibition constant (Ki) on EP4 receptors (setting [1]) turned out to be 3840 nM; on human EP2 receptors (setting [2]), 229 nM.
Turning to `CCCCCCC(O)c1ccc(N2C(=O)CC[C@@H]2CCCc2ccc(C(=O)O)s2)cc1` (single isomer, unassigned) [drawing 183], the inhibitory constant (Ki) on human EP2 receptors (setting [2]) stood at 12 nM. Also, the EC50 on hEP1 was found to be 6950 nM.
As for `CCCCCCC(O)c1ccc(N2C(=O)CC[C@@H]2CCCc2ccc(C(=O)O)s2)cc1` (single isomer, unassigned) [drawing 184], the inhibition constant Ki at human EP2 receptors (setting [2]) worked out at 8 nM. Further, on hIP, the EC50 was above 10000 nM.
`CCCCCC(O)c1ccc(N2C(=O)CC[C@@H]2CCCc2ccc(C(=O)O)s2)cc1` (some centres unmarked) [drawing 145]: the Ki at EP4 receptors (setting [1]) was above 10000 nM; on human EP2 receptors (setting [2]), 23 nM.
In the same order, the values of `CCCCCC(O)c1ccc(N2C(=O)CC[C@@H]2CCCc2ccc(C(=O)O)s2)cc1` (some centres unmarked) [drawing 173] are above 10000 nM and 23 nM.
